Source: ChEMBL document CHEMBL1201862, “PubChem BioAssay data set” (2004)
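A five-concentration, 48-hour dose response in 96-well plates underlies each endpoint, interpolated linearly between surrounding concentrations. GI50 is the concentration that inhibits growth by half.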 Calls of active or inactive are those of the source. Cut-off read from the data, not from the text of the source: active = GI50 up to about 1.1 µM and inactive = higher.

Tests used:
Test in all cases: inhibition of tumour cell growth, NCI panel, 48 h
[1] = tested on: 786-0
[2] = tested on: ACHN
[3] = tested on: CAKI-1
[4] = tested on: EKVX
[5] = tested on: HOP-62
[6] = tested on: K562
[7] = tested on: LOX IMVI
[8] = tested on: SF-539
[9] = tested on: SK-MEL-28
[10] = tested on: SK-MEL-2
[11] = tested on: SN12C
[12] = tested on: SR
[13] = tested on: TK-10
[14] = tested on: HL-60

Measured: GI50

C=C(C)CC(C(=O)O)c1ccc(C)cc1 (stereo not given)
inactive: [1] > 100 µM | [2] > 100 µM | [3] > 100 µM | [4] > 100 µM | [5] > 100 µM | [6] > 100 µM | [7] > 100 µM | [8] > 100 µM | [9] > 100 µM | [10] > 100 µM | [11] > 100 µM | [12] > 100 µM | [13] > 100 µM

OCCCCCNc1ccnc2cc(Cl)ccc12
inactive: [1] > 100 µM | [2] > 100 µM | [3] > 100 µM | [4] 86.3 µM | [14] 22 µM | [5] > 100 µM | [6] 21.9 µM | [7] > 10 µM | [8] > 100 µM | [9] > 100 µM | [10] > 100 µM | [11] > 100 µM | [12] 19.5 µM

NC(=O)/N=C1\NC(Cc2ccccc2)C(=O)N1Cc1ccccc1 (stereo not given)
inactive: [1] > 100 µM | [2] 80.4 µM | [4] > 100 µM | [14] > 100 µM | [5] > 100 µM | [6] > 100 µM | [7] > 100 µM | [8] > 100 µM | [9] > 100 µM | [11] > 100 µM | [12] > 100 µM | [13] > 100 µM

Cc1c2ncccc2c(C)c2c1[nH]c1ccccc12
inactive: [1] 9.38 µM | [2] 12.9 µM | [3] 9.23 µM | [4] 16 µM | [5] 11.8 µM | [6] 14.5 µM | [7] 5.66 µM | [8] 13.2 µM | [9] 15.6 µM | [10] 22.9 µM | [11] 11.5 µM | [13] 17.7 µM

S=C1OC2CCCC[C@H]2O1 (stereo not given in full)
inactive: [1] > 100 µM | [2] > 100 µM | [3] > 100 µM | [4] > 100 µM | [14] > 100 µM | [5] > 100 µM | [6] > 100 µM | [7] > 100 µM | [8] > 100 µM | [9] > 100 µM | [10] > 100 µM | [11] > 100 µM | [12] > 100 µM | [13] > 100 µM

Sc1nnc(-c2ccccc2)n1/N=C\c1ccc(-c2ccc(Cl)cc2)o1
inactive: [1] > 100 µM | [2] > 100 µM | [14] > 100 µM | [5] > 100 µM | [6] > 100 µM | [7] > 100 µM | [8] > 100 µM | [9] > 100 µM | [12] > 100 µM | [13] > 100 µM

CN(C)CC1CCCC/C1=N/OC(=O)c1ccc(Cl)c(Cl)c1 (stereo not given)
inactive: [1] > 100 µM | [2] > 100 µM | [3] > 100 µM | [4] > 100 µM | [14] > 100 µM | [5] > 100 µM | [6] > 100 µM | [7] > 100 µM | [8] > 100 µM | [9] > 100 µM | [10] > 100 µM | [11] > 100 µM | [12] > 100 µM | [13] > 100 µM

CCOc1cccc2cccnc12
inactive: [1] > 100 µM | [2] > 100 µM | [4] > 100 µM | [14] > 100 µM | [5] > 100 µM | [6] > 100 µM | [7] > 100 µM | [8] > 100 µM | [9] > 100 µM | [11] > 100 µM | [13] > 100 µM

Nc1ccc2c(c1)CC1c3ccccc3C(C2)c2ccccc21
inactive: [1] > 100 µM | [2] > 100 µM | [3] > 100 µM | [14] > 100 µM | [5] > 100 µM | [6] > 100 µM | [7] > 100 µM | [8] > 100 µM | [10] > 100 µM | [11] > 100 µM | [12] 9.68 µM | [13] > 100 µM

CC(=O)ON(C(C)=O)C1C(COC(c2ccccc2)(c2ccccc2)c2ccccc2)OC2OC3(CCCC3)OC21 (stereo not given)
inactive: [1] 30.9 µM | [2] 7.66 µM | [3] > 100 µM | [4] 16.9 µM | [14] 3.32 µM | [5] 11.6 µM | [6] 4.27 µM | [7] 8.18 µM | [8] > 100 µM | [9] > 100 µM | [10] 27.2 µM | [11] 5.13 µM | [12] 3.2 µM | [13] > 81.7 µM

CN(C)CN(C)c1nc(N(C)C)nc(N(C)C)n1
inactive: [1] > 100 µM | [2] > 100 µM | [3] > 100 µM | [4] > 100 µM | [14] > 100 µM | [5] > 100 µM | [6] > 100 µM | [7] > 100 µM | [8] > 100 µM | [9] > 100 µM | [10] > 100 µM | [11] > 100 µM | [12] > 100 µM | [13] > 100 µM

O=Cc1cc2sc(C=O)cc2s1
inactive: [1] > 100 µM | [3] 45.3 µM | [4] > 100 µM | [14] > 100 µM | [5] > 100 µM | [6] > 100 µM | [7] > 100 µM | [8] > 100 µM | [11] > 100 µM | [12] > 100 µM | [13] > 100 µM

CC1=NC(C(C)C)C(=O)O1 (stereo not given)
inactive: [1] 58.1 µM | [2] > 100 µM | [3] > 100 µM | [4] > 100 µM | [14] > 100 µM | [5] > 100 µM | [6] 61.1 µM | [8] > 100 µM | [9] > 100 µM | [11] > 100 µM | [13] > 100 µM

Cc1ccc2ccc(-c3ccccc3)c3c2c1C(=O)c1ccccc1C3=O
inactive: [1] 36.5 µM | [2] 58.5 µM | [4] > 100 µM | [14] > 100 µM | [5] 54.3 µM | [6] > 100 µM | [7] > 100 µM | [8] 54.3 µM | [9] > 100 µM | [10] > 100 µM | [11] > 100 µM | [12] > 100 µM | [13] > 100 µM

CN1C(c2ccccc2)CC(=O)C(N)C1c1ccccc1 (stereo not given)
inactive: [1] 31.3 µM | [2] 35.9 µM | [3] 28.3 µM | [4] > 53 µM | [14] 20.6 µM | [5] > 92.5 µM | [6] 30.6 µM | [7] 18 µM | [8] 42.1 µM | [9] 18.6 µM | [10] 19.4 µM | [11] 34.7 µM | [12] 25 µM | [13] 43.7 µM

CSC1=NC=CCN1C
inactive: [1] > 100 µM | [2] > 100 µM | [3] > 100 µM | [4] > 100 µM | [14] > 100 µM | [5] > 100 µM | [6] > 100 µM | [7] > 100 µM | [9] > 100 µM | [10] > 100 µM | [11] > 100 µM | [13] > 100 µM

CN(C)CC(=O)N1CCc2c([nH]c3ccccc23)C1c1cccnc1 (stereo not given)
inactive: [1] > 100 µM | [2] > 100 µM | [3] > 100 µM | [4] > 100 µM | [14] > 100 µM | [5] > 100 µM | [6] > 100 µM | [7] > 100 µM | [8] > 100 µM | [9] > 100 µM | [11] > 100 µM | [12] > 100 µM | [13] > 100 µM

COC1CCCc2c(OC(C)=O)ccc(OC(C)=O)c21 (stereo not given)
inactive: [1] > 100 µM | [2] > 100 µM | [3] > 100 µM | [14] > 100 µM | [5] > 100 µM | [6] > 100 µM | [7] > 100 µM | [9] > 100 µM | [10] > 100 µM | [11] > 100 µM | [12] > 100 µM | [13] > 100 µM

O=S(O)CCCCSSCc1ccccc1CSSCCCCS(=O)O
inactive: [1] > 100 µM | [2] 18.7 µM | [3] 25.8 µM | [4] 22.2 µM | [14] 5.69 µM | [5] 35.3 µM | [6] 16.6 µM | [7] 10.5 µM | [8] 15.1 µM | [9] 13.1 µM | [10] 35.2 µM | [11] 26 µM | [13] 43.4 µM

COc1ccc(C2Oc3cc(OC)c(O)c(C)c3[C@H]2C)cc1 (stereo not given in full)
inactive: [1] > 100 µM | [2] 54.2 µM | [3] > 100 µM | [4] 26.6 µM | [14] 18.2 µM | [5] > 100 µM | [6] 61.2 µM | [7] 40.5 µM | [8] > 100 µM | [9] > 100 µM | [10] > 100 µM | [13] > 100 µM

O=C(O)c1ccccc1NS(=O)(=O)c1ccc(Cl)cc1
inactive: [1] > 100 µM | [2] > 100 µM | [3] > 100 µM | [4] > 100 µM | [5] > 100 µM | [6] > 100 µM | [7] > 100 µM | [8] > 100 µM | [9] > 100 µM | [10] > 100 µM | [11] > 100 µM | [13] > 100 µM

C=C1C(=O)O[C@H]2[C@H]1[C@H](OC(=O)/C(C)=C\C)CC(=C)[C@@H]1[C@H](O)[C@H]3O[C@@]3(C)[C@@]12O [EUPATUNDIN]
inactive: [1] > 100 µM | [2] > 100 µM | [3] > 100 µM | [4] > 100 µM | [5] > 100 µM | [6] > 100 µM | [7] > 100 µM | [8] > 100 µM | [9] > 100 µM | [10] > 100 µM | [11] > 100 µM | [12] > 100 µM | [13] > 100 µM
